Experimental data taken from article PMC3707081, “Hypothemicin, a fungal natural product, identifies therapeutic targets in Trypanosoma brucei” (eLife, 2013).

Target: T1, TbCLK1 (Trypanosoma brucei, UniProt Q382U0)
T1 construct: gene Tb11.01.4230; full-length, recombinant from E. coli (pET100)
Test: in vitro kinase assay (γ-32P-ATP, myelin basic protein), […] min pre-incubation with […] ATP; also target engagement in intact parasites by competition with probe […]
Format: biochemical

T1 sequence (Q382U0 entry or part of it): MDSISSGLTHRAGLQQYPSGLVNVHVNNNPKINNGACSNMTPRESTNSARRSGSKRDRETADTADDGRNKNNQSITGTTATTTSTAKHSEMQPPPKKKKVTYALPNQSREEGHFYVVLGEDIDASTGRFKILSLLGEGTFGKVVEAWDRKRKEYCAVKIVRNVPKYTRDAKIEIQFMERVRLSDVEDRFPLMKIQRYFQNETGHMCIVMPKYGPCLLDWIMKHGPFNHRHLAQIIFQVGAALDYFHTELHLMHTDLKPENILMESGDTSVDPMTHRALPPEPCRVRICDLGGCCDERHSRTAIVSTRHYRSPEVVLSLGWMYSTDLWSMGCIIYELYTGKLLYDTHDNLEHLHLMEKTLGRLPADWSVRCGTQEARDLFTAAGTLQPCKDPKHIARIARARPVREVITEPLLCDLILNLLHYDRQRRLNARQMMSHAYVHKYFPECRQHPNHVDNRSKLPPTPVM

With `COc1cc(O)c2c(c1)[C@H]1O[C@@H]1C[C@H](O)[C@H](O)C(=O)/C=C\C[C@H](C)OC2=O` [compound 1, hypothemycin] the IC50 was 150 nM.
